Assay results taken from the NIST ThermoML archive (doi:10.1021/je3002514).
± gives the expanded uncertainty stated by the source.

Conditions: Crystal; visual observation

| Normal melting temperature [°C] | SMILES |
| --- | --- |
| 62.0 ± 2 | CCCC[N+](C)(CCCC)CCCC.COS(=O)(=O)[O-] [N,N-dibutyl-N-methyl-1-butanaminium methyl sulfate] |
| 38.0 ± 2 | CCCC[P+](C)(CCCC)CCCC.COS(=O)(=O)[O-] [tributylmethylphosphonium methyl sulfate] |
